Experimental data as given in the NIST ThermoML archive (doi:10.1021/je049671t).

Experiment: xn = mol fraction of the nth substance listed
Conditions: Liquid, Vibrating tube method

CC(C)C [2-methylpropane] + CCC
Conditions | mass density [kg/m3]
240 K, 398.2 kPa, x2 = 0.25 | 608.19
240 K, 475.1 kPa, x2 = 0.25 | 608.27
240 K, 529.1 kPa, x2 = 0.75 | 584.35
240 K, 1000.1 kPa, x2 = 0.25 | 608.87
240 K, 1024.1 kPa, x2 = 0.75 | 584.98
240 K, 1473.4 kPa, x2 = 0.75 | 585.53
240 K, 1505.9 kPa, x2 = 0.25 | 609.45
240 K, 2000.7 kPa, x2 = 0.75 | 586.19
240 K, 2004.5 kPa, x2 = 0.25 | 610.02
240 K, 2531.8 kPa, x2 = 0.75 | 586.84
240 K, 2533 kPa, x2 = 0.25 | 610.61
240 K, 3006.4 kPa, x2 = 0.75 | 587.4
240 K, 3028.4 kPa, x2 = 0.25 | 611.15
240 K, 3537.9 kPa, x2 = 0.25 | 611.73
240 K, 3545.4 kPa, x2 = 0.75 | 588.06
240 K, 4012.9 kPa, x2 = 0.75 | 588.63
240 K, 4027.7 kPa, x2 = 0.25 | 612.28
240 K, 4515.3 kPa, x2 = 0.75 | 589.21
240 K, 4519.1 kPa, x2 = 0.25 | 612.81
240 K, 4996.8 kPa, x2 = 0.75 | 589.79
240 K, 5030.4 kPa, x2 = 0.25 | 613.37
240 K, 5496.4 kPa, x2 = 0.75 | 590.37
240 K, 5533.4 kPa, x2 = 0.25 | 613.91
240 K, 6009 kPa, x2 = 0.75 | 590.98
240 K, 6033 kPa, x2 = 0.25 | 614.45
240 K, 6541 kPa, x2 = 0.75 | 591.59
240 K, 6541.5 kPa, x2 = 0.25 | 615
240 K, 6969.5 kPa, x2 = 0.75 | 592.1
240 K, 6987.7 kPa, x2 = 0.25 | 615.48
250 K, 515.5 kPa, x2 = 0.499 | 584.94
250 K, 1014.4 kPa, x2 = 0.499 | 585.61
250 K, 1511.1 kPa, x2 = 0.499 | 586.26
250 K, 2027.5 kPa, x2 = 0.499 | 586.95
250 K, 2489.8 kPa, x2 = 0.499 | 587.55
250 K, 3012.9 kPa, x2 = 0.499 | 588.23
250 K, 3492.5 kPa, x2 = 0.499 | 588.84
250 K, 3995.9 kPa, x2 = 0.499 | 589.47
250 K, 4532.5 kPa, x2 = 0.499 | 590.12
250 K, 5042.2 kPa, x2 = 0.499 | 590.74
250 K, 5484.6 kPa, x2 = 0.499 | 591.29
250 K, 5996.5 kPa, x2 = 0.499 | 591.9
250 K, 6509.5 kPa, x2 = 0.499 | 592.48
250 K, 6818.8 kPa, x2 = 0.499 | 592.84
260 K, 251.9 kPa, x2 = 0.75 | 560.57
260 K, 521.1 kPa, x2 = 0.25 | 586.55
260 K, 527 kPa, x2 = 0.75 | 561.44
260 K, 990.2 kPa, x2 = 0.25 | 587.2
260 K, 1026.1 kPa, x2 = 0.75 | 562.22
260 K, 1481.6 kPa, x2 = 0.25 | 587.88
260 K, 1524.1 kPa, x2 = 0.75 | 563.04
260 K, 2004.4 kPa, x2 = 0.25 | 588.63
260 K, 2030.6 kPa, x2 = 0.75 | 563.8
260 K, 2504.8 kPa, x2 = 0.25 | 589.32
260 K, 2508.8 kPa, x2 = 0.75 | 564.52
260 K, 2995 kPa, x2 = 0.25 | 589.98
260 K, 3035.5 kPa, x2 = 0.75 | 565.31
260 K, 3494.1 kPa, x2 = 0.75 | 566
260 K, 3517.2 kPa, x2 = 0.25 | 590.65
260 K, 3986.7 kPa, x2 = 0.25 | 591.2
260 K, 4039.9 kPa, x2 = 0.75 | 566.81
260 K, 4476.3 kPa, x2 = 0.25 | 591.87
260 K, 4527.2 kPa, x2 = 0.75 | 567.5
260 K, 4968.6 kPa, x2 = 0.75 | 568.07
260 K, 4976.3 kPa, x2 = 0.25 | 592.53
260 K, 5537.1 kPa, x2 = 0.75 | 568.72
260 K, 5550.8 kPa, x2 = 0.25 | 593.3
260 K, 6051.9 kPa, x2 = 0.25 | 593.96
260 K, 6474.3 kPa, x2 = 0.25 | 594.47
260 K, 6513.6 kPa, x2 = 0.75 | 570.1
260 K, 6922.9 kPa, x2 = 0.75 | 570.57
260 K, 7006.2 kPa, x2 = 0.25 | 595.15
280 K, 467.2 kPa, x2 = 0.499 | 549.36
280 K, 478.7 kPa, x2 = 0.75 | 535.35
280 K, 500.3 kPa, x2 = 0.25 | 562.94
280 K, 952.8 kPa, x2 = 0.499 | 550.3
280 K, 990.6 kPa, x2 = 0.75 | 536.42
280 K, 1004.7 kPa, x2 = 0.25 | 563.86
280 K, 1462.8 kPa, x2 = 0.25 | 564.67
280 K, 1514 kPa, x2 = 0.499 | 551.39
280 K, 1517.2 kPa, x2 = 0.75 | 537.51
280 K, 2007.8 kPa, x2 = 0.25 | 565.62
280 K, 2007.8 kPa, x2 = 0.499 | 552.34
280 K, 2029.6 kPa, x2 = 0.75 | 538.54
280 K, 2489.1 kPa, x2 = 0.499 | 553.22
280 K, 2510.3 kPa, x2 = 0.75 | 539.5
280 K, 2513.6 kPa, x2 = 0.25 | 566.51
280 K, 2999.1 kPa, x2 = 0.25 | 567.36
280 K, 3019.4 kPa, x2 = 0.75 | 540.5
280 K, 3022.9 kPa, x2 = 0.499 | 554.21
280 K, 3488.8 kPa, x2 = 0.25 | 568.19
280 K, 3519.6 kPa, x2 = 0.499 | 555.1
280 K, 3522.3 kPa, x2 = 0.75 | 541.47
280 K, 3992 kPa, x2 = 0.499 | 555.95
280 K, 3992.4 kPa, x2 = 0.25 | 569.03
280 K, 4026.3 kPa, x2 = 0.75 | 542.43
280 K, 4516.8 kPa, x2 = 0.25 | 569.91
280 K, 4518.6 kPa, x2 = 0.499 | 556.87
280 K, 4544.4 kPa, x2 = 0.75 | 543.38
280 K, 4965.2 kPa, x2 = 0.75 | 544.17
280 K, 4979.1 kPa, x2 = 0.25 | 570.66
280 K, 5014 kPa, x2 = 0.499 | 557.72
280 K, 5482.8 kPa, x2 = 0.499 | 558.54
280 K, 5485 kPa, x2 = 0.25 | 571.47
280 K, 5530.9 kPa, x2 = 0.75 | 545.19
280 K, 5989.4 kPa, x2 = 0.25 | 572.28
280 K, 6012.9 kPa, x2 = 0.75 | 546.05
280 K, 6027 kPa, x2 = 0.499 | 559.46
280 K, 6488.2 kPa, x2 = 0.75 | 546.89
280 K, 6525.9 kPa, x2 = 0.499 | 560.31
280 K, 6532.5 kPa, x2 = 0.25 | 573.13
280 K, 6931.1 kPa, x2 = 0.75 | 547.66
280 K, 6938.9 kPa, x2 = 0.499 | 560.98
280 K, 6965.6 kPa, x2 = 0.25 | 573.82
280 K, 6968.2 kPa, x2 = 0.25 | 573.78
300 K, 824.3 kPa, x2 = 0.75 | 507.35
300 K, 996.8 kPa, x2 = 0.499 | 523.82
300 K, 1001.6 kPa, x2 = 0.25 | 538.53
300 K, 1503.7 kPa, x2 = 0.25 | 539.71
300 K, 1519.6 kPa, x2 = 0.499 | 525.17
300 K, 1534 kPa, x2 = 0.75 | 509.38
300 K, 2006.6 kPa, x2 = 0.25 | 540.87
300 K, 2026.1 kPa, x2 = 0.499 | 526.45
300 K, 2028.3 kPa, x2 = 0.75 | 510.77
300 K, 2493.2 kPa, x2 = 0.75 | 512.04
300 K, 2510.6 kPa, x2 = 0.25 | 542.01
300 K, 2530.4 kPa, x2 = 0.499 | 527.7
300 K, 3014.6 kPa, x2 = 0.25 | 543.13
300 K, 3028.7 kPa, x2 = 0.75 | 513.47
300 K, 3043.4 kPa, x2 = 0.499 | 528.93
300 K, 3486.8 kPa, x2 = 0.499 | 529.95
300 K, 3488.8 kPa, x2 = 0.25 | 544.16
300 K, 3519.2 kPa, x2 = 0.75 | 514.75
300 K, 3995.5 kPa, x2 = 0.499 | 531.16
300 K, 3996.7 kPa, x2 = 0.75 | 515.97
300 K, 4012 kPa, x2 = 0.25 | 545.28
300 K, 4467.1 kPa, x2 = 0.75 | 517.17
300 K, 4483.4 kPa, x2 = 0.25 | 546.25
300 K, 4503.6 kPa, x2 = 0.499 | 532.34

mass density [kg/m3]
Conditions | 240 K | 250 K | 260 K | 280 K
x2 = 0.25 | 607.81 | – | 585.98 | 562.49
x2 = 0.499 | – | 584.44 | – | 549.15
x2 = 0.75 | 583.82 | – | 560.96 | 535.32
